Key:
Assay type in all cases: cell-based, murine
B16F10 melanoma cells = test: Visual pigmentation of B16F10 cells and culture medium; conditions: 10-50 μg/ml, 5 days, medium change at day 3
Description: B16F10 melanoma cells were treated with 10-50 μg/ml peptide of SEQ ID NO: 1 (“Lf B-17-34”) for 5 days with a medium change at day 3. The cells and medium were recovered in test tubes. Kojic acid is used as negative control in the cellular study due to known inhibitory effects on tyrosinase activity. IBMX is used as positive control in the cellular study due to known elevator of cellular cAMP level, to stimulate melanogenesis.
(§1) B16F10 murine melanoma cells were cultured in phenol red-free DMEM with 10% fetal bovine serum and penicillin/streptomycin (100 IU/50 […]) in a humidified atmosphere containing 5% CO2 in air at 37° C.

B16F10 cells = test: Melanin content assay; conditions: 10-50 μg/ml, 5 days
Description: as §1
Melanin contents of cultured B16F10 cells were measured according to the method (Lee et al., J Invest Dermatol 124, 405-411, 2005) with a slight modification. Briefly, B16F10 cells were seeded in 6-well plate (2×10^4 cells/well) and incubated overnight to allow cells to adhere. After treating with various test samples in an incubator for 5 days, washed, trypsinized and counted before pelleting. Melanin per cell was quantified after boiling in 1 M NaOH for 1 hour and melanin content in each sample was read from a calibration curve against synthetic eumelanin at 400 nm and converted to means±SE melanin pg/cell from 3 independent experiments.

Tyrosinase [1] = test: Tyrosinase assay (cell lysate, L-DOPA); conditions: B16F10 cells, 10-50 μg/ml, 5 days
Description: as §1
Tyrosinase is the rate limiting enzyme in the melanogenic pathway. Its measurement provides a highly specific and sensitive indication of degree of induction of melanogenesis. Tyrosinase enzyme activity of cultured B16F10 cells were measured according to the method of (Bellei et al., J Biol Chem 285, 7288-7299, 2010) with a slight modification. Briefly, B16F10 cells were seeded in 6-well plate (2×10^4 cells/well) and incubated overnight to allow cells to adhere. After treating with various test samples in an incubator for 5 days, cells were washed with PBS and then harvested using trypsin. At the end point, the cells were solubilized with phosphate buffer (pH 6.8) containing 1% Triton X-100. The cells were then disrupted by freezing and thawing, and the lysates were clarified by centrifugation at 10,000×g for 10 min. After protein quantification and adjustment of protein concentrations with lysis buffer, 100 μl of each lysate (each containing the same amount of protein) were aliquoted into the wells of a 96-well plate, and 100 μl of 5 mM L-DOPA were then added to each well. The absorbance was measured spectrophotometrically at 475 nm following a […] incubation period at 37° C. […]

Tyrosinase [2] = test: DOPA staining; conditions: B16F10 cells, 10-50 μg/ml, 4 days
Description: as §1
DOPA staining was also performed to measure tyrosinase enzyme activity. B16F10 cells were seeded in 6-well plate (2×10^4 cells/well) and incubated overnight to allow cells to adhere. After treating with various test samples in an incubator for 4 days, cells were washed with PBS, fixation with 2% paraformaldehyde and washing with PBS a further three times, the cells were incubated with 0.1% DOPA (dissolved in 0.1 M PBS) at 37° C. for 5 hour, and observed using light microscopy (Wang et al., Exp Ther Med 6, 967-972, 2013).

DOPA staining (Tyrosinase [2]): strong DOPA staining
Sequence: FKCRRWQWRMKKLGAPSI (listed as Bos taurus) [Lf B-17-34]
pigmentation in cells and in medium (B16F10 melanoma cells): hyper pigmentation in cells as in medium to a similar extent | melanin synthesis (melanin content in cells, melanin secretion in medium) (B16F10 cells): significantly increased melanin synthesis in a concentration-dependent manner | tyrosinase activity (Tyrosinase [1]): significantly increased tyrosinase activity

From patent publication US9895303B2, “Peptide, method and composition for stimulating melanogenesis” (Renorigin Innovation Institute Co., Ltd., priority 2016, dated 2018)
